Assay results published in PubChem BioAssay AID179 (DTP/NCI, 2004).
Several values for one entry are separate records, joined by “and”; a condition that tells them apart may be missing. Equal values may be shown once. Activity calls are given as the source filed them.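 Rule for the calls: active = compounds giving half or more protection of infected cells from virus-caused growth loss, again on retest; inactive = the rest.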

System: CEM cells HIV-1 protection, formazan growth assay
Test: NCI AIDS Antiviral Assay
Details: for IC50: measured here: growth of uninfected CEM cells
Outline: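 Protection of CEM cells against HIV-1 measured as cell growth via soluble formazan read-out, with five concentrations tested on both infected and uninfected cells; failure to protect may reflect toxicity.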

Compound | EC50 [µM] | IC50 | outcome
CCOC(=O)c1c(NC(=S)Nc2ccc(C)cc2)sc2c1CCN(C)C2 | > 200 | > 200 µM | –
CCCCCCCCCCCC(=O)c1c(O)cc(C)oc1=O | > 100 | 5.37 µM | –
C=C=C(C)C(C(C)C)N1CCCC1 (configuration not stated) | > 1230 | 138 µM | –
COC(=O)N1CC[C@]2(CC=C(C)C)c3ccccc3N(S(=O)(=O)c3ccccc3)[C@H]12 | > 100 | 24.5 µM | –
N#CCCN(CCC#N)C(=O)Nc1cccc2ccccc12 | – | – | inactive
C=Cc1c2[n-]c(c1C)/C=c1\[n-]/c(c(C)c1C=C)=C\c1[n-]c(c(CCC(=O)O)c1C)/C=c1\[n-]/c(c(C)c1CCC(=O)O)=C\2.[Co] | > 74.1 | > 74.1 µM | –
CCOc1ccc(NCc2cc(OC)c(OC)c(OC)c2)cc1 | > 158 | 0.324 µM and 0.339 µM | –
COC(OC)C1(c2ccccc2)Oc2ccccc2C1=O (configuration not stated) | > 166 | 81.3 µM | –
Clc1ccc(C2=NOC3C4CCC(C4)C23)cc1 (configuration not stated) | – | – | inactive
O=C(CCc1nnc2s/c(=C\c3ccccc3Cl)c(=O)n12)Nc1cc(Cl)ccc1Cl | > 525 | > 525 µM | –
O=C1C=CC(=O)c2c1ccc1c3ccccc3n(CCCCCn3c4ccccc4c4ccc5c(c43)C(=O)C=CC5=O)c21 | > 200 | 3.31 µM | –
CCCCCCCCOC1C(O)C(O)C(O)C(O)C12CO2 (configuration not stated) | > 200 | 75.9 µM | –
CCOC(=O)NNC(=O)NCCNC(=O)NNC(=O)OCC | > 200 | > 200 µM | –
N#CCCN(c1ccc(C=Nc2ccccc2)cc1)S(=O)(=O)c1ccccc1 | – | – | inactive
CN(C)C(=S)SSC(=S)SSC(=S)N(C)C | > 2 | 0.646 µM | –
COc1ccc(/C=N/Nc2nnc3c4ccccc4n(C)c3n2)cc1 | > 200 | > 200 µM | –
CCN(c1cccc(NC(=S)Nc2ccccc2N(CC)c2cc(-c3ccccc3)no2)c1)c1cc(-c2ccccc2)no1 | > 200 | > 200 µM | –
Cc1ccc(/C=C/C(=O)c2sc(-c3cccnc3)nc2C)cc1 | > 22.4 | > 22.4 µM | –
Cc1ccc(S(=O)(=O)c2ccsc2NC(=O)c2ccccc2)cc1 | > 100 | > 100 µM | –
COc1cc2nncc(Sc3cnnc4ccccc34)c2cc1OC | > 61.7 | 7.59 µM | –
O=[N+]([O-])c1cc(Cl)ccc1S(=O)(=O)N1CCCc2cc(Cl)ccc21 | > 200 | 30.2 µM | –
O=C(CNC(=O)Nc1ccc(NC(=O)NCC(=O)Nc2ccc(C3=NCCN3)cc2)cc1)Nc1ccc(C2=NCCN2)cc1 | 81.3 | > 200 µM | –

Compound | EC50 [µM] | IC50 | outcome
Cc1ccc(NC(=O)C(=O)C(C2C(C)CC(=O)C2CC(=O)O)[N+](=O)[O-])cc1 (configuration not stated) | – | – | inactive
Cn1cccc1/C=C/c1cc(Br)c(/C=C/c2cccn2C)cc1Br | – | – | inactive
O=C(CBr)OCCCS(=O)(=O)O | > 200 | > 200 µM | –
NC(=O)C12C(=O)NC(=O)C1(C(=O)O)C21CCCC1 (configuration not stated) | > 200 | > 200 µM | –
CCN(CC)CCn1c2cc3c(cc2c(=O)c2cccnc21)OCO3 | > 200 | 7.94 µM | –
C[C@H]1OC(=O)[C@@H]2N=NN(Cc3ccccc3)[C@H]12 | – | – | inactive
COc1ccc(-c2ccccc2)c(N/N=C2\CCCNC2=O)c1 | – | – | inactive
S=C(S)N1CCCCC1 | > 200 | – | –
S=P(NC1CCCCC1)(NC1CCCCC1)NC1CCCCC1 | > 200 | > 200 µM | –
Cc1cccc(C)c1N=Nc1ccc(O)c(CN(C)C)c1 | > 200 | 39.8 µM | –
O=[N+]([O-])c1cc(C2SCc3nc4ccccc4n32)ccc1Cl (configuration not stated) | – | – | inactive
Cc1ccc(O)c(C(c2cccc(C(c3cc(C)ccc3O)c3cc(C)ccc3O)c2)c2cc(C)ccc2O)c1 | > 20 | 3.31 µM | –
COc1ccc(O[C@H](COCc2ccccc2)C[C@@H]2COC(C)(C)O2)cc1 | – | – | inactive
Oc1ccc(/C=C/c2cc(O)cc3c2[C@@H](c2cc(O)cc4c2[C@H](c2cc(O)cc5c2[C@@H](c2cc(O)cc(O)c2)[C@H](c2ccc(O)cc2)O5)[C@@H](c2ccc(O)cc2)O4)[C@H](c2ccc(O)cc2)O3)cc1 | 12.3 | 15.8 µM | –
O=S(=O)(/N=C1/SC(=Nc2ccccc2)N(c2ccccc2)/C1=N/S(=O)(=O)c1ccccc1)c1ccccc1 | > 200 | 2.82 µM | –
CC(=O)C(C)[P+](c1ccccc1)(c1ccccc1)c1ccccc1 (configuration not stated) | > 200 | 39.8 µM | –
O=C1/C(=C/c2ccccc2)N=C2Sc3c(nc[nH]c3=O)N12 | – | – | inactive
COC1(OC)C2(Cl)C(Cl)=C(Cl)C1(Cl)C1C=CC=CC12 (configuration not stated) | – | – | inactive
CC(=O)OCCNc1n[nH]c(=O)c2cnccc12 | > 1000 | > 1000 µM | –
O=[N+]([O-])c1ccccc1SSc1ccccc1[N+](=O)[O-] | > 12.3 | 7.41 µM | inactive
CCCCCCCCC=CCCCCCCCC(=O)O[C@H](COC(=O)CCCCCCC/C=C\CCCCCCCC)COP(=O)(O)OCCNC(=O)CCC(=O)OCCC=C(c1cc(Cl)c(OC)c(C(=O)OC)c1)c1cc(Cl)c(OC)c(C(=O)OC)c1 | > 100 | 60.3 µM | –
O=C(/C=C\c1ccccc1)c1ccc(-c2ccc([N+](=O)[O-])cc2)cc1 | – | – | inactive

Compound | EC50 [µM] | IC50 | outcome
Cc1cnc2cc(Cl)ccc2c1NCCN(CC(C)C)CC(C)C | > 1 | > 1 µM | –
COc1ccc(C(=O)C(C(=O)CCC(=O)Nc2ccc(C)c(C)c2)c2ccc(OC)cc2)cc1 (configuration not stated) | > 21.9 | > 21.9 µM | –
CC(=O)O[C@]1(C(C)=O)CC[C@H]2[C@@H]3C=C(Cl)C4=CC(=O)[C@@H]5C[C@@H]5[C@]4(C)[C@H]3CC[C@@]21C | > 200 | > 200 µM | –
O=C(Nc1ccccc1C(=O)Nc1nccs1)c1ccccc1 | > 200 | 32.4 µM | –
CC1CCC2CC(=O)OC([C@@H]3C(=O)O[C@@H](C4=CCCC4)C4C(C)CCC43)C12 (some centres not stated) | > 10 | > 10 µM | –
CCOC(=O)CSCn1ncc2ccc([N+](=O)[O-])cc21 | – | – | inactive
N#Cc1c(-c2ccccc2)cc(-c2ccccc2)n(C2OC(CO)C(O)C(O)C2O)c1=O (configuration not stated) | > 219 | 214 µM and > 60.3 µM | –
CCOC(=O)NC(=O)c1c[nH]c(=O)[nH]c1=O | > 1100 | > 1100 µM | –
CSc1c(C(N)=O)c2c(N)ncnc2n1C1OC(CO)C(O)C1O (configuration not stated) | > 2 | 1.02 µM | –
O=C1c2c(O)ccc(O)c2C(=O)c2c(NCCCCCO)ccc(NCCCCCO)c21 | – | – | inactive
N#CC(N=O)C(N)=O (configuration not stated) | > 200 | > 200 µM | –
NNC(=O)C1CC2c3ccccc3C1c1ccccc12 (configuration not stated) | – | – | inactive
CC1CC(c2ccccc2)Nc2nc3ccccc3n21 (configuration not stated) | > 151 | > 151 µM | –
CCc1nc(N)nc(N)c1-c1ccc(Cl)cc1 | > 1 | 0.0372 µM | –
Cc1cc(NS(=O)(=O)c2ccc(NC(=O)c3cccc4c(Nc5ccc(S(N)(=O)=O)cc5)c5ccccc5nc34)cc2)no1 | > 148 | > 148 µM | –
Nc1ncnc2c1ncn2C1OC(CO)CC1F (configuration not stated) | – | > 200 µM and 191 µM | –
Cc1ccccc1N1C(=O)/C(=C/c2ccc(N(CCC#N)CCC#N)cc2)N=C1c1cc([N+](=O)[O-])ccc1Cl | > 9.77 | > 9.77 µM | –
CC(=O)NC1=C(C)C(=O)c2c(nc3n2CCC3O)C1=O (configuration not stated) | > 200 | 1.58 µM | –
Cc1ccccc1SC(/C=C/NNC1=NC(c2ccccc2)C(c2ccccc2)=NN1)c1ccccc1 (configuration not stated) | > 20 | > 20 µM | –
C/C(=N/NC(=O)C[n+]1ccccc1)C(CN(CC(C)C)CC(C)C)C(=O)Nc1ccc(C)cc1C (configuration not stated) | > 14.1 | > 14.1 µM | –
Cc1cc(C)c2c(=N)c3ccccc3n(CCCCCCn3c4ccccc4c(=N)c4c(C)cc(C)nc43)c2n1 | > 2 | 0.302 µM | –
O=C1C=C(c2ccccc2)Sc2ccccc2N1 | > 89.1 | 47.9 µM | –

Compound | EC50 [µM] | IC50 | outcome
CCC(=O)NC(Nc1ccc(O)cc1)(C(F)(F)F)C(F)(F)F | > 200 | 46.8 µM | –
Cc1occc1C(=S)Nc1ccc(Cl)c(C(=O)OCC(C)C)c1 | 0.0123 | 18.6 µM | –
CC1=C(OCCCl)C2CC1C1C(=O)N(c3ccccc3)C(=O)C21 (configuration not stated) | > 389 | > 389 µM | –
CC(NC(C#N)CC12CC3CC(CC(C3)C1)C2)c1ccccc1 (configuration not stated) | > 200 | 41.7 µM | –
CCOC(=O)NC(=O)c1cn(C(CC)COC(=O)NCCCCCCNC(=O)OCC(CC)n2cc(C(=O)NC(=O)OCC)c(=O)[nH]c2=O)c(=O)[nH]c1=O (configuration not stated) | – | – | inactive
O=[P+](O)c1cccs1 | – | – | inactive
Cn1c(=O)c2c(nc3n2C(CCl)CO3)n(C)c1=O (configuration not stated) | – | – | inactive
O=C1CC2(CCC3=C(O2)c2ccccc2NC(=O)C3)C(=O)c2ccccc2N1 (configuration not stated) | > 69.2 | > 69.2 µM | –
COC(=O)C(=O)C1(CCC(C)=O)c2ccccc2-c2ccccc21 | – | – | inactive
CCN(CC)S(=O)(=O)c1ccc(Nc2nc(Cl)nc(Cl)n2)cc1 | > 200 | > 200 µM | –
CC(=O)O[C@]12CCCCCC1C1(O)C(O)CCCCC12 (some centres not stated) | > 200 | > 200 µM | –
CCOc1cc2c(cc1O)C(O)C[C@@H]1[C@@H]2CC[C@]2(C)[C@@H](O)CC[C@@H]12 (some centres not stated) | > 200 | 0.0776 µM | –
C=C1C(=O)C[C@@]23CCC[C@@]12CC(OCOC)C3 (some centres not stated) | – | – | inactive
CCOCN1COCN=C1NC#N | > 490 | > 490 µM | –
Cc1cccc(NC(=S)NC(=O)c2ccccc2)n1 | > 200 | > 200 µM | –
CC1(C)c2ccccc2N2O[C@@H]3C(=O)N(c4ccccc4)C(=O)[C@@H]3C21c1ccccc1 (some centres not stated) | > 36.3 | > 36.3 µM | –
Cc1ccc(Nc2cccc3c2C(=O)c2cccc(Nc4ccc(C)cc4S(=O)(=O)O)c2C3=O)c(S(=O)(=O)O)c1 | – | – | active
CC(C)(C)[Si](C)(C)OC[C@@H](NC(=O)OCc1ccccc1)C(=O)O | > 200 | > 200 µM | –
O=C(O)C(C(C(=O)O)P(=O)(O)O)P(=O)(O)O (configuration not stated) | > 200 | > 200 µM | –
N#CC(CCN1CCC(Nc2ccccc2)(c2nnnn2C2CCCCC2)CC1)(c1ccccc1)c1ccccc1 | > 200 | > 200 µM | –
CCOC(=O)C1(C#N)CC1 | – | – | inactive
CC(=O)CNC(=O)OC(C)(C)C | – | – | inactive
